Laboratory results taken from patent publication US5089623A, “Certain imidate insecticides” (Imperial Chemical Industries Plc, priority 1990, dated 1992).

Assays:
Format in all cases: in vivo
[1] = test system: Tobacco Budworm [Heliothis virescens (Fabricius)] eggs; test: Tobacco budworm egg test (TBW-E); settings: percent in solution
[2] = test system: Maize weevil [Sitophilus Zeamais (Motschulsky)]; test: Maize weevil test (MW); settings: adult weevils, treated corn seeds, 48 hours, percent in solution
Protocol: The compounds in Tables 1 and 2 above were tested for insecticidal activity using the following testing procedures. LC50 values, based on the results of these tests and calculated according to dosage-mortality curves, are expressed in Table 3.
Maize weevil [Sitophilus Zeamais (Motschulsky)]
Test compounds were diluted in a 50:50 acetone:water solution. Four corn seeds [Zea mays (L.)] which had been immersed in test solutions for 2-3 seconds and allowed to dry were placed in containers together with 10 adult weevils. The containers were covered and kept at a temperature of about 25° C. Mortality was recorded after 48 hours. Test concentrations ranged from 0.01% down to that at which 50% mortalilty occurred. The LC50 values are expressed below in Table 3 under the heading "MW" in terms of percent of the test compound in solution.

[3] = test system: Cabbage Looper [Trichoplusia ni (Hubner)]; test: Cabbage looper test (CL); settings: second-instar larvae, 3-5 days, percent in solution
[4] = test system: Housefly [Musca domestica]; test: Housefly insecticidal test (HF); settings: per 25 female houseflies, 48 hours

SMILES | LC50 TBW E [1] [%] | LC50 MW [2] [%] | LC50 CL [3] [%] | LC50 HF [4] [µg]
CC(C)C(=Nc1c(F)c(F)cc(F)c1F)OCc1cccc(Oc2ccc(F)cc2)c1 [Compound 304] | > 0.1 | > 0.01 | 0.0024 | > 100
CC(C)C(=Nc1ccc(F)c(I)c1)OCc1ccc(F)c(Oc2ccccc2)c1 [Compound 334] | 0.013 | > 0.01 | 0.0007 | 9
CC(C)C(=Nc1ccc(C(F)(F)F)c(Br)c1)OCc1ccc(F)c(Oc2ccccc2)c1 [Compound 434] | > 0.1 | 0.009 | 0.0017 | < 100
CC(C)C(=Nc1ccc(C(F)(F)F)cc1Cl)OCc1ccc(F)c(Oc2ccccc2)c1 [Compound 428] | > 0.1 | > 0.01 | 0.0017 | > 100
CC(C)C(=Nc1ccc(C#N)cc1)OCc1ccc(F)c(Oc2ccc(Cl)cc2)c1 [Compound 392] | 0.039 | > 0.01 | 0.00034 | < 100
CC(C)C(=Nc1ccc(Cl)c(C(F)(F)F)c1)OCc1ccc(F)c(Oc2ccc(F)cc2)c1 [Compound 340] | 0.04 | 0.0069 | 0.00037 | 34
Cc1cccc(N=C(OCc2cccc(Oc3ccc(F)cc3)c2)C(C)C)c1 [Compound 405] | > 0.1 | > 0.01 | > 0.1 | < 100
Fc1ccc(Oc2cccc(COC(=Nc3ccc(F)c(Cl)c3)C3CC3)c2)cc1 [Compound 116] | 0.05 | > 0.01 | 0.00025 | 15
CC(C)C(=Nc1cccc(C(F)(F)F)c1)OCc1cc(Oc2ccccc2)ccn1 [Compound 506] | > 0.1 | > 0.01 | 0.005 | 40
CC(C)C(=Nc1ccc(I)c(Cl)c1)OCc1ccc(F)c(Oc2ccc(F)cc2)c1 [Compound 385] | > 0.1 | > 0.01 | > 0.1 | < 100
CC(C)C(=Nc1cccc(Br)c1)OCc1ccc(F)c(Oc2ccc(Cl)cc2)c1 [Compound 386] | > 0.1 | > 0.01 | 0.0012 | < 100
C=C(C)C(=Nc1ccc(C(F)(F)F)cc1)OCc1cccc(Oc2ccc(Cl)cc2)n1 [Compound 560] | < 0.1 | > 0.01 | 0.0015 | < 100
Cc1ccc(N=C(OCc2ccc(F)c(Oc3ccc(Cl)cc3)c2)C(C)C)cc1C [Compound 406] | < 0.1 | > 0.01 | > 0.1 | < 100
Cc1cc(N=C(OCc2cccc(Oc3ccc(Cl)cc3)c2)C(C)C)ccc1F [Compound 397] | < 0.1 | > 0.01 | 0.0019 | < 100
CC(C)C(=Nc1cccc(Br)c1)OCc1cccc(Oc2ccc(Cl)cc2)n1 [Compound 557] | > 0.1 | > 0.01 | 0.0004 | < 100
C=C(C)C(=Nc1ccc(C(F)(F)F)cc1)OCc1cccc(Oc2ccc(F)cc2)c1 [Compound 442] | 0.035 | > 0.01 | 0.0007 | < 100

SMILES | LC50 TBW E [1] [%] | LC50 MW [2] [%] | LC50 CL [3] [%] | LC50 HF [4] [µg]
CC(C)C(=Nc1ccc(C#N)cc1)OCc1cccc(Oc2ccc(Cl)cc2)c1 [Compound 393] | > 0.1 | > 0.01 | 0.00037 | < 100
CCc1ccc(N=C(OCc2cccc(Oc3ccccc3)c2)C(C)(C)C)cc1 [Compound 163] | > 0.1 | > 0.01 | 0.004 | > 100
CC(C)C(=Nc1ccc(Cl)c(C(F)(F)F)c1)OCc1cccc(Oc2ccccc2)n1 [Compound 555] | > 0.1 | > 0.01 | 0.002 | < 100
COc1ccc(N=C(OCc2ccc(F)c(Oc3ccc(Cl)cc3)c2)C(C)C)cc1 [Compound 412] | > 0.1 | > 0.01 | > 0.1 | < 100
Cc1cc(N=C(OCc2ccc(F)c(Oc3ccc(F)cc3)c2)C(C)C)ccc1F [Compound 396] | < 0.1 | > 0.01 | 0.0017 | < 100
CC(C)C(=Nc1ccc(C(F)(F)F)cc1Cl)OCc1cccc(Oc2ccc(F)cc2)c1 [Compound 427] | > 0.1 | > 0.01 | < 0.1 | > 100
C=C(C)C(=Nc1ccc(F)c(Cl)c1)OCc1cccc(Oc2ccccc2)c1 [Compound 417] | 0.04 | < 0.01 | 0.0008 | < 100
CC(C)C(=Nc1ccc(F)c(Br)c1)OCc1ccc(F)c(Oc2ccccc2)c1 [Compound 299] | 0.017 | > 0.01 | 0.0005 | 8
CC(C)C(=Nc1ccc(C(C)(C)C)cc1)OCc1ccc(F)c(Oc2ccc(Cl)cc2)c1 [Compound 301] | > 0.1 | > 0.01 | 0.008 | > 100
CC(C)C(=Nc1cccc(C(F)(F)F)c1)OCc1cc(Oc2ccc(Cl)cc2)ccn1 [Compound 509] | > 0.1 | > 0.01 | 0.0075 | 79
Cc1ccc(N=C(OCc2ccc(F)c(Oc3ccc(Cl)cc3)c2)C(C)C)cc1Cl [Compound 404] | 0.025 | > 0.01 | > 0.1 | < 100
CC(C)C(=Nc1ccc(OCC(F)(F)F)c(Cl)c1)OCc1cccc(Oc2ccc(Cl)cc2)c1 [Compound 421] | < 0.1 | > 0.01 | 0.002 | > 100
CC(C)C(=Nc1ccc(Cl)cc1)OCc1cccc(Oc2ccccc2)n1 [Compound 553] | 0.1 | > 0.01 | < 0.1 | < 100
CC(C)C(=Nc1ccc(F)c(Cl)c1)OCc1ccnc(Oc2ccccc2)c1 [Compound 510] | > 0.1 | > 0.01 | 0.017 | 54
CCCc1ccc(N=C(OCc2ccc(F)c(Oc3ccc(F)cc3)c2)C(C)C)cc1 [Compound 440] | < 0.1 | > 0.01 | 0.002 | > 100
COCc1c(F)c(F)c(COC(=Nc2ccc(F)c(Cl)c2)C(C)C)c(F)c1F [Compound 505] | 0.09 | > 0.01 | 0.0024 | 14
